These results are taken from patent US8283346B2, “Human immunodeficiency virus protease inhibitors” (The Trustees of the Stevens Institute of Technology, priority 2009, dated 2012).

For the experiment, the target named is T1, HIV-1 protease (Human immunodeficiency virus type 1 group M subtype B, UniProt P04585).
T1 construct: The HIV-1 protease is composed of 99 amino acids
In words: In vitro HIV-1 protease assay. It counts as biochemical. The note with it: for fold higher biological activity than the corresponding SRR (C4) diastereomer: SRS compound vs its SRR diastereomer (4 vs 3, 6 vs 5, 17 vs 16, 13 vs 12, 19 vs 18, 23 vs 22, 21 vs 20); for biological activity compared with another named compound, in words: comparator named in the value; for IC50: purified HIV-1 protease 15 picomolar, peptide substrate 440 micromolar, pH 5.5, 30° C., 60 minutes, HPLC fluorescence detection. The procedure: Compounds were evaluated for the ability to inhibit the enzymatic activity of HIV-1 protease in an in vitro assay. Protease activity was assessed in reactions catalyzed by purified HIV-1 protease at a concentration of 15 picomolar in buffer (50 mM sodium acetate, pH 5.5, 100 mM NaCl, 1 mg/mL bovine serum albumin) using a peptide substrate with sequence Val-Ser-Gln-Asn-(beta-naphthylalanine)-Pro-IIe-Val at a concentration of 440 micromolar in a final volume of 80 microliters. Compounds in DMSO stock were added to a final DMSO concentration of 2.5% and preincubated with enzyme prior to the initiation of the reaction by addition of substrate. Reactions were incubated at 30° C. for 60 minutes and were then quenched by the addition of 120 microliters 10% H3PO4. The amount of product formed was determined using high performance liquid chromatography with a Vydac C18 column and fluorescence detection of product. Percent inhibition was determined relative to control reactions without inhibitor, and half maximal inhibitory concentration (IC50) values were determined using a standard four parameter fit to the inhibition data. The IC50 is a quantitative measure of the effectiveness of a compound in inhibiting biological or biochemical function that indicates how much a particular compound or other substance is needed to inhibit a given biological process (or component of a process) by half.

“And” between values parts separate entries of the source, which are not always exact repeats. Identical values can stand only once.

`C[C@H]1Cc2ccccc2S(=O)(=O)N(C[C@@H](O)[C@H](Cc2ccccc2)NC(=O)Oc2ccccc2)C1` [Compound 17]: the “fold higher biological activity than the corresponding SRR (C4) diastereomer” value was “approximately 10 fold”; the “biological activity compared with another named compound, in words” value was “higher activity than Compound 16”; half-maximal inhibition (IC50) required 2060 nM.

Take `COc1ccc2c(c1)C[C@@H](C)CN(C[C@@H](O)[C@H](Cc1ccccc1)NC(=O)OC(C)(C)C)S2(=O)=O` [Compound 22]: the “biological activity (HIV-1 protease inhibition) in words” value is “not active” and the IC50 came to 6100 nM.

`C[C@@H]1Cc2ccccc2S(=O)(=O)N(C[C@@H](O)[C@H](Cc2ccccc2)NC(=O)OC(C)(C)C)C1` [Compound 14] came in with a 50% inhibitory concentration (IC50) of 5470 nM.

For `C=CCOC(=O)N[C@@H](Cc1ccccc1)[C@H](O)CN1C[C@H](C)Cc2ccccc2S1(=O)=O` [Compound 3], the IC50 was 5960 nM.

With `C[C@H]1Cc2ccc(C(F)(F)F)cc2S(=O)(=O)N(C[C@@H](O)[C@H](Cc2ccccc2)NC(=O)OC(C)(C)C)C1` [Compound 21], the “fold higher biological activity than the corresponding SRR (C4) diastereomer” value was roughly 14 fold and the concentration for half-maximal inhibition (IC50) stood at 612 nM.

Regarding `C[C@@H]1Cc2ccc(C(F)(F)F)cc2S(=O)(=O)N(C[C@@H](O)[C@H](Cc2ccccc2)NC(=O)OC(C)(C)C)C1` [Compound 20], inhibition was half-maximal at 8300 nM (IC50).

In the case of `CCOC(=O)N[C@@H](Cc1ccccc1)[C@H](O)CN1C[C@@H](c2ccccc2)Cc2ccccc2S1(=O)=O` [Compound 11], the “biological activity compared with another named compound, in words” value is listed as “higher biological activity than that of Compound 10” and inhibition was half-maximal at 864 nM (IC50).

For `CC1Cc2ccccc2S(=O)(=O)N(C[C@@H](O)[C@H](Cc2ccccc2)NC(=O)OC(C)(C)C)C1` (mixture of isomers) [Compound 2], the half-inhibitory concentration (IC50) was 240 nM and 220 nM. Moreover, under “mixture of two C4 diastereomers vs compound 1”, the “fold greater activity than compound 1 (R=H)” value is listed as “ten-fold greater activity”.

Take `CCOC(=O)N[C@@H](Cc1ccccc1)[C@H](O)CN1C[C@@H](C)Cc2ccccc2S1(=O)=O` [Compound 6]: the “fold higher biological activity than the corresponding SRR (C4) diastereomer” value is “approximately 54 fold” and the half-maximal inhibitory concentration (IC50) amounted to 199 nM.

As to `C[C@H]1Cc2cc(F)ccc2S(=O)(=O)N(C[C@@H](O)[C@H](Cc2ccccc2)NC(=O)OC(C)(C)C)C1` [Compound 13], the “fold higher biological activity than the corresponding SRR (C4) diastereomer” value is given as roughly 132 fold; the “biological activity compared with another named compound, in words” value is recorded as “higher biological activity than Compound 15”; the IC50 amounted to 119 nM.

The compound `C[C@@H]1Cc2cc(F)ccc2S(=O)(=O)N(C[C@@H](O)[C@H](Cc2ccccc2)NC(=O)OC(C)(C)C)C1` [Compound 12] gave an IC50 of 15700 nM.

For the compound `CC(C)(C)OC(=O)N[C@@H](Cc1ccccc1)[C@H](O)CN1CC(c2ccccc2)Cc2ccccc2S1(=O)=O` (mixture of isomers) [Compound 7], the “biological activity compared with another named compound, in words” value was “biological activity higher than that of Compound 1” and half-maximal inhibition (IC50) required 455 nM.

As for `CC(C)(C)OC(=O)N[C@@H](Cc1ccccc1)[C@H](O)CN1CCCc2ccccc2S1(=O)=O` [Compound 1], the “biological activity compared with another named compound, in words” value is listed as “much less active when compared to Compound 4”; the IC50 is 2800 nM and 3050 nM.

In turn, `CCOC(=O)N[C@@H](Cc1ccccc1)[C@H](O)CN1C[C@H](c2ccccc2)Cc2ccccc2S1(=O)=O` [Compound 10] showed an IC50 of 2440 nM.

As for `C=CCOC(=O)N[C@@H](Cc1ccccc1)[C@H](O)CN1C[C@@H](C)Cc2ccccc2S1(=O)=O` [Compound 4], the “fold higher biological activity than the corresponding SRR (C4) diastereomer” value is reported as “approximately 40 fold” and inhibition was half-maximal at 157 nM (IC50).

For `C[C@H]1Cc2cc(F)ccc2S(=O)(=O)N(C[C@@H](O)[C@H](Cc2ccccc2)NC(=O)C2CN(c3ccccc3)C(=O)O2)C1` (stereo partly drawn) [Compound 24], the “biological activity (HIV-1 protease inhibition) in words” value was “highly active” and the IC50 was 176 nM.

Take `C[C@H]1Cc2cc(C(F)(F)F)ccc2S(=O)(=O)N(C[C@@H](O)[C@H](Cc2ccccc2)NC(=O)OC(C)(C)C)C1` [Compound 19]: the “biological activity (HIV-1 protease inhibition) in words” value was “not very active”, the “fold higher biological activity than the corresponding SRR (C4) diastereomer” value is roughly 18 fold and the half-maximal inhibitory concentration (IC50) amounted to 1120 nM.

With `C[C@H]1Cc2ccccc2S(=O)(=O)N(C[C@@H](O)[C@H](Cc2ccccc2)NC(=O)OC(C)(C)C)C1` [Compound 15], the “biological activity compared with another named compound, in words” value is “higher biological activity than that of Compound 14” and it took 169 nM to reach half-maximal inhibition (IC50).

In the case of `CCOC(=O)N[C@@H](Cc1ccccc1)[C@H](O)CN1C[C@H](C)Cc2ccccc2S1(=O)=O` [Compound 5], inhibition was half-maximal at 10800 nM (IC50).

Regarding `C=CCOC(=O)N[C@@H](Cc1ccccc1)[C@H](O)CN1C[C@H](c2ccccc2)Cc2ccccc2S1(=O)=O` [Compound 8], the “biological activity compared with another named compound, in words” value is “lower biological activity than that of Compound 9” and the IC50 came to 3260 nM.

Turning to `COc1ccc2c(c1)C[C@H](C)CN(C[C@@H](O)[C@H](Cc1ccccc1)NC(=O)OC(C)(C)C)S2(=O)=O` [Compound 23], the “biological activity (HIV-1 protease inhibition) in words” value is “excellent activity”, the “fold higher biological activity than the corresponding SRR (C4) diastereomer” value is roughly 57 fold and the half-maximal inhibitory concentration (IC50) amounted to 107 nM.

Turning to `C=CCOC(=O)N[C@@H](Cc1ccccc1)[C@H](O)CN1C[C@@H](c2ccccc2)Cc2ccccc2S1(=O)=O` [Compound 9], the “biological activity compared with another named compound, in words” value was “higher biological activity than that of Compound 3” and the half-maximal inhibitory concentration (IC50) came to 470 nM.
